Test results taken from paper PMC3177598 (Bioorganic & medicinal chemistry letters, 2008).

Assays:
mAChRs (M1, M3 and M5) = conditions: in our hands; ref [8]; cited from earlier work
D2 = D2 (Homo sapiens, UniProt P14416); experiment: D2 antagonist activity / D2 inhibition; assay type: cell-based
D2, sequence (P14416 whole entry): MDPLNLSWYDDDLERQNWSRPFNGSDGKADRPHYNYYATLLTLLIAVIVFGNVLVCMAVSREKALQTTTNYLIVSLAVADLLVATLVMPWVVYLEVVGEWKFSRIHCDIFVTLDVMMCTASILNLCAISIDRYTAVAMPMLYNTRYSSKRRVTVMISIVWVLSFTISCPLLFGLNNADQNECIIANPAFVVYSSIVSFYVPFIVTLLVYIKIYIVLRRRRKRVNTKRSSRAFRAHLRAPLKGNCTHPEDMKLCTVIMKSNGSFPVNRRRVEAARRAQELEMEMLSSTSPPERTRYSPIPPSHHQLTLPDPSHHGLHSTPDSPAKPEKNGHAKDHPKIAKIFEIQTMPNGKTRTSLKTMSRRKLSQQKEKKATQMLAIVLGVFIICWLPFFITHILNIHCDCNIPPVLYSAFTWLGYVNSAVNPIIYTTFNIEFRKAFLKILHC

SMILES | mAChR subtypes activated (in words) (mAChRs (M1, M3 and M5)) | D2 inhibition (in words) (D2)
CC[C@@H]1SC2(CCN(C)CC2)NC1=O [AF267B] | activates M1, M3 and M5, and is M3 preferring | 
Cc1ccccc1CN1CCC(N2CCC(n3c(=O)[nH]c4cc(F)ccc43)CC2)CC1 [Compound 20b] |  | no significant D2 inhibition
Cc1ccccc1CN1CCC(N2CCC(n3c(=O)[nH]c4ccc(F)cc43)CC2)CC1 [Compound 20c] |  | no significant D2 inhibition
